Patent US11555012B2 (Nimbus Artemis, Inc., priority 2018, dated 2023)

The compounds below were run against ACL (Homo sapiens (Human), UniProt P53396) (assay: ADP-Glo Assay).
Chain of ACL (P53396 other isoform, or with tags, fused parts or gaps isoform P53396-2): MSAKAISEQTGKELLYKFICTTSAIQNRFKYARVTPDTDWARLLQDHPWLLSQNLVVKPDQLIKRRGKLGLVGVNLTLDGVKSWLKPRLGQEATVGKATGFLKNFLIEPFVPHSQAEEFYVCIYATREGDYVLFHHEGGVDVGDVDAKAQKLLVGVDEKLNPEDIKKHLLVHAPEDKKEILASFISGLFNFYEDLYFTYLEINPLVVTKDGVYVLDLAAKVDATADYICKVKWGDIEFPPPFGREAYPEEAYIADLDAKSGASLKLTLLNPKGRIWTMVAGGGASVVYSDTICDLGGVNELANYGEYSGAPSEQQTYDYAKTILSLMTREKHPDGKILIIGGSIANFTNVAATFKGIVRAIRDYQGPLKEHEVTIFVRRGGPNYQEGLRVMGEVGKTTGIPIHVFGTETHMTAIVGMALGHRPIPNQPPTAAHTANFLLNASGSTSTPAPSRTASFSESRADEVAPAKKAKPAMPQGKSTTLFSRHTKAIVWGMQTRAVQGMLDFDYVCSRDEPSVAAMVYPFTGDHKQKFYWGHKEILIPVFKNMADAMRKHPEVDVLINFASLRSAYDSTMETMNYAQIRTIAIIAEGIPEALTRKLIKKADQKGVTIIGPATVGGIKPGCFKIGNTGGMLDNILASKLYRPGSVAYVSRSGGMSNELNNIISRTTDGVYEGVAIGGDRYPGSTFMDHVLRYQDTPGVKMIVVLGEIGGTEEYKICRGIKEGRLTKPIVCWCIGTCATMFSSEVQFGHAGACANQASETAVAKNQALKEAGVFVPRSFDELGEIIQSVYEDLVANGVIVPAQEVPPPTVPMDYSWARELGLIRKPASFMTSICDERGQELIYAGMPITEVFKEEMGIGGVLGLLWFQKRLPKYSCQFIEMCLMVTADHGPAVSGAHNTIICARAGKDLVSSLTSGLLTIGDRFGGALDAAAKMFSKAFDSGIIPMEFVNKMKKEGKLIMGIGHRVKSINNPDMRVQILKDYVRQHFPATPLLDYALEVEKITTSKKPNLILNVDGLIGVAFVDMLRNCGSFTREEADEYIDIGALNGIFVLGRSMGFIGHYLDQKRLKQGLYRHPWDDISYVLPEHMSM

Compound	IC50 [nM]
O=S(=O)(N[C@H]1C[C@H](c2ccc(F)cc2)C1)c1cc(Cl)cc(Cl)c1O [I-167]	500 to 20000
O=S(=O)(NCc1nc(-c2cccc(F)c2)no1)c1cc(Cl)cc(Cl)c1O [I-168]	500 to 20000
CC(C)n1ncc2cc(NS(=O)(=O)c3cc(Cl)cc(Cl)c3O)ccc21 [I-169]	500 to 20000
O=S(=O)(Nc1cnn(-c2ccccc2)c1)c1cc(Cl)cc(Cl)c1O [I-170]	500 to 20000
O=S(=O)(Nc1ccc(OCc2ccccc2)cc1)c1cc(Cl)cc(Cl)c1O [I-171]	500 to 20000
CC(C)(C)Cc1nc2cc(NS(=O)(=O)c3cc(Cl)cc(Cl)c3O)ccc2o1 [I-172]	500 to 20000
CC(C)(CNS(=O)(=O)c1cc(Cl)cc(Cl)c1O)c1cccs1 [I-173]	500 to 20000
NC(=O)c1sc2ccccc2c1NS(=O)(=O)c1cc(Cl)cc(Cl)c1O [I-174]	500 to 20000
CC(=O)N1CCCN(c2ccc(F)cc2NS(=O)(=O)c2cc(Cl)cc(Cl)c2O)CC1 [I-175]	500 to 20000
O=S(=O)(NC1CCN(c2nc3ccccc3s2)CC1)c1cc(Cl)cc(Cl)c1O [I-176]	500 to 20000
O=S(=O)(Nc1cccc(-n2nccn2)c1)c1cc(Cl)cc(Cl)c1O [I-177]	500 to 20000
CC(C)NC(=O)c1ccc(NS(=O)(=O)c2cc(Cl)cc(Cl)c2O)cc1 [I-178]	500 to 20000
CN(C)C(=O)C(NS(=O)(=O)c1cc(Cl)cc(Cl)c1O)c1ccccc1 (stereo not drawn) [I-179]	500 to 20000
O=S(=O)(NC1(c2ccc(F)cc2)CC1)c1cc(Cl)cc(Cl)c1O [I-180]	500 to 20000
Cc1c(CNS(=O)(=O)c2cc(Cl)cc(Cl)c2O)n(C)c2ccccc12 [I-181]	500 to 20000
O=S(=O)(Nc1cc(F)cc(N2CCOCC2)c1)c1cc(Cl)cc(Cl)c1O [I-182]	500 to 20000
O=S(=O)(NC1CCN(c2ccccc2)C1)c1cc(Cl)cc(Cl)c1O (stereo not drawn) [I-183]	500 to 20000
CC(NS(=O)(=O)c1cc(Cl)cc(Cl)c1O)c1ccc2c(c1)NC(=O)CO2 (stereo not drawn) [I-184]	500 to 20000
O=S(=O)(NCC1COc2ccccc2C1)c1cc(Cl)cc(Cl)c1O (stereo not drawn) [I-185]	500 to 20000
O=S(=O)(Nc1cccc2cccc(F)c12)c1cc(Cl)cc(Cl)c1O [I-186]	500 to 20000
O=S(=O)(NCC1(Cc2ccc(F)cc2)CC1)c1cc(Cl)cc(Cl)c1O [I-187]	500 to 20000
COc1cccc(CCNS(=O)(=O)c2cc(Cl)cc(Cl)c2O)c1 [I-188]	500 to 20000
O=S(=O)(Nc1cnc(-c2ccccc2)s1)c1cc(Cl)cc(Cl)c1O [I-189]	500 to 20000
O=S(=O)(Nc1cc(-c2ccccc2)c(F)cc1F)c1cccc(Cl)c1Cl [I-190, 2,3-dichloro-N-[4,6-difluoro-[1,1-biphenyl]-3-yl]benzene-1-sulfonamide]	500 to 20000
COC(=O)c1cccc(S(=O)(=O)Nc2cc(-c3ccccc3)c(F)cc2F)c1 [I-191, methyl 3-([4,6-difluoro-[1,1-biphenyl]-3-yl]sulfamoyl)benzoate]	500 to 20000
O=S(=O)(Nc1cc(-c2ccccc2)c(F)cc1F)c1cccc(Cl)c1F [I-195, 3-chloro-N-(4,6-difluoro-[1,1′-biphenyl]-3-yl)-2-fluorobenzenesulfonamide]	500 to 20000
N#Cc1cc(S(=O)(=O)Nc2cc(-c3ccccc3)c(F)cc2F)ccc1Cl [I-196, 4-chloro-3-cyano-N-(4,6-difluoro-[1,1′-biphenyl]-3-yl) benzenesulfonamide]	500 to 20000

The remaining lines, values ahead:

IC50 [nM]	Compound
50 to 500	CCC(=O)Oc1c(Cl)cc(C(=O)OC)cc1S(=O)(=O)Nc1cc(-c2ccccc2)ccc1F [I-120, Methyl 3-chloro-5-([4-fluoro-[1,1-biphenyl]-3-yl]sulfamoyl)-4-(propanoyloxy)benzoate]
500 to 20000	CCC(=O)Oc1ccccc1S(=O)(=O)Nc1cc(-c2ccccc2)ccc1F [I-121, 2-[(2-fluoro-5-phenylphenyl)sulfamoyl]phenyl Propanoate]
500 to 20000	O=S(=O)(Nc1cc(-c2ccccc2)ccc1F)c1cc(Cl)cc(Cl)c1OC1COC1 [I-122, 3,5-dichloro-N-(4-fluoro-[1,1′-biphenyl]-3-yl)-2-(oxetan-3-yloxy)benzenesulfonamide]
500 to 20000	O=S(=O)(NCc1cc(-c2ccccc2)ccc1F)c1cc(Cl)cc(Cl)c1O [I-125, 3,5-dichloro-N-((4-fluoro-[1,1′-biphenyl]-3-yl)methyl)-2-hydroxybenzenesulfonamide]
500 to 20000	Cc1c(C(=O)O)cc(Cl)c(O)c1S(=O)(=O)Nc1cc(-c2ccccc2)c(F)cc1F [I-132, 5-chloro-3-([4,6-difluoro-[1,1-biphenyl]-3-yl]sulfamoyl)-4-hydroxy-2-methylbenzoic Acid]
500 to 20000	O=C(O)c1cc(Cl)cc(S(=O)(=O)Nc2cc(-c3ccccc3)c(F)cc2F)c1 [I-147, 3-chloro-5-(N-(4,6-difluoro-[1,1′-biphenyl]-3-yl)sulfamoyl)benzoic Acid]
500 to 20000	O=C(Nc1cc(-c2ccccc2)c(F)cc1F)c1cc(C(=O)N2CCCC2)cc(Cl)c1O [I-150, 3-chloro-N-(4,6-difluoro-[1,1′-biphenyl]-3-yl)-2-hydroxy-5-(pyrrolidine-1-carbonyl)benzamide]
500 to 20000	NC(=O)COc1c(Cl)cc(Cl)cc1S(=O)(=O)Nc1cc(-c2ccccc2)ccc1F [I-151, 2-(2,4-dichloro-6-(N-(4-fluoro-[1,1′-biphenyl]-3-yl)sulfamoyl)phenoxy)acetamide]
500 to 20000	CNC(=O)COc1c(Cl)cc(Cl)cc1S(=O)(=O)Nc1cc(-c2ccccc2)ccc1F [I-152, 2-(2,4-dichloro-6-(N-(4-fluoro-[1,1′-biphenyl]-3-yl)sulfamoyl)phenoxy)-N-methylacetamide]
500 to 20000	O=C(COc1c(Cl)cc(Cl)cc1S(=O)(=O)Nc1cc(-c2ccccc2)ccc1F)N1CCC1 [I-153, 2-(2-(azetidin-1-yl)-2-oxoethoxy)-3,5-dichloro-N-(4-fluoro-[1,1′-biphenyl]-3-yl)benzenesulfonamide]
500 to 20000	COc1c(Br)cc(C(=O)N2CCC2)cc1S(=O)(=O)Nc1cc(-c2ccccc2)ccc1F [I-154, 5-(azetidine-1-carbonyl)-3-bromo-N-(4-fluoro-[1,1′-biphenyl]-3-yl)-2-methoxybenzenesulfonamide]
500 to 20000	O=C(O)c1cc(Cl)c(O)c(C(=O)Nc2cc(-c3ccccc3)c(F)cc2F)c1 [I-155, 3-chloro-5-((4,6-difluoro-[1,1′-biphenyl]-3-yl)carbamoyl)-4-hydroxybenzoic Acid]
500 to 20000	O=S(=O)(Nc1cc(-c2ccccc2)c(F)cc1F)c1cc(Cl)ccc1F [I-156, 5-chloro-N-(4,6-difluoro-[1,1′-biphenyl]-3-yl)-2-fluorobenzenesulfonamide]
500 to 20000	CC(=O)NCCNC(=O)c1cc(Cl)c(O)c(S(=O)(=O)Nc2cc(-c3ccccc3)c(F)cc2F)c1 [I-161, N-(2-[[3-chloro-5-([4,6-difluoro-[1,1-biphenyl]-3-yl]sulfamoyl)-4-hydroxyphenyl]formamido]ethyl)acetamide]
500 to 20000	CC(C)Oc1ccc(F)cc1NS(=O)(=O)c1cc(Cl)cc(Cl)c1O [I-163]
500 to 20000	O=S(=O)(Nc1cc(-n2nnnc2C2CC2)ccc1F)c1cc(Cl)cc(Cl)c1O [I-164]
500 to 20000	CC(C)Cc1csc(NS(=O)(=O)c2cc(Cl)cc(Cl)c2O)c1C(=O)N1CCOCC1 [I-165]
500 to 20000	COc1ccc(CN(C)S(=O)(=O)c2cc(Cl)cc(Cl)c2O)cc1 [I-166]
